Assay results from patent EP3807270B1, “NOVEL HETEROARYL HETEROCYCLYL COMPOUNDS FOR THE TREATMENT OF AUTOIMMUNE DISEASE” (F. Hoffmann-La Roche AG, priority 2018, dated 2019).

What was measured:
[1] = Human microsome stability assay; format: in vitro ADME; conditions: 1 µM test compound, 0.5 mg/mL liver microsomal protein, 37 °C
Summary of the method: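 Test compound at 1 µM was incubated with human liver microsomes (0.5 mg/mL protein) and an NADPH-regenerating system in 100 mM potassium phosphate, pH 7.4, at 37 °C. Samples were taken at 0–30 min and quenched with acetonitrile. Remaining compound was quantified by LC-MS/MS, with no-NADPH controls.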

[2] = target: T1, hTLR9 (Homo sapiens, UniProt Q9NR96); experiment: HEK293-Blue-hTLR-9 cells assay (SEAP reporter, ODN2006 stimulation); format: cell-based; set-up: host or cells: HEK293 (HEK-Blue); conditions: HEK293-Blue-hTLR9 cells, ODN2006, 20 hrs; read-out: HEK/hTLR9 IC50
T1 sequence (Q9NR96 26-1032): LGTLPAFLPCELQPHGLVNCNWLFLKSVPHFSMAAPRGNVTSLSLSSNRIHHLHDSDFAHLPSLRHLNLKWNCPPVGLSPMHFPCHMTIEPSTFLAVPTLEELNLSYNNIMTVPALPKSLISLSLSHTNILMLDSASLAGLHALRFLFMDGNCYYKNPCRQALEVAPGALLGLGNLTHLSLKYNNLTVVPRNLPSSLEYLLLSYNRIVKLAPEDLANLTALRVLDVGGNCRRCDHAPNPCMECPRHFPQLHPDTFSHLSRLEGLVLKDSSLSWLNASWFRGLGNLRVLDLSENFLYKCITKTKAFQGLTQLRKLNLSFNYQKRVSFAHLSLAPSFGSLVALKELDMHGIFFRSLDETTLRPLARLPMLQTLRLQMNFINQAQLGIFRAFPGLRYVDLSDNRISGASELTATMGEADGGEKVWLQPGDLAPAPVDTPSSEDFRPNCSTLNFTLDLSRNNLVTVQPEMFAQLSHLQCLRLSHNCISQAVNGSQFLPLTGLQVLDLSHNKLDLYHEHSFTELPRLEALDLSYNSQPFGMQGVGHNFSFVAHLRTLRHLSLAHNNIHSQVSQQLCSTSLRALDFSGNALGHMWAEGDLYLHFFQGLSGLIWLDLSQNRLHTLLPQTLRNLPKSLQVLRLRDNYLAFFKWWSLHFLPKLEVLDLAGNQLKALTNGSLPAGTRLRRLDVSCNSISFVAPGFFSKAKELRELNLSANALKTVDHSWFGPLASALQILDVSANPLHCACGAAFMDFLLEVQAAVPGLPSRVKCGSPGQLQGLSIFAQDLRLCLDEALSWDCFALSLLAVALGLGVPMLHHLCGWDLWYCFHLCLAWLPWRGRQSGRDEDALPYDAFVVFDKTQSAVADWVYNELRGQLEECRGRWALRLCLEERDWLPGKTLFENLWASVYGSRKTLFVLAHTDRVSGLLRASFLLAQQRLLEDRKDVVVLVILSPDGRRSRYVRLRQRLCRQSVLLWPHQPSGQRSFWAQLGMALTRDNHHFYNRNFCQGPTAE
Summary of the method: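 HEK293-Blue-hTLR9 cells (250,000-450,000 cells/mL) in DMEM with 10% FBS were treated with serially diluted compound (1% DMSO final) plus ODN2006 for 20 hrs at 37 °C. Supernatant SEAP activity was measured with QUANTI-Blue substrate for 2 hrs at 37 °C, reading absorbance at 620-655 nm.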

SMILES	Clearance of Human microsome [1] [mL/min/kg]	IC50 [2] [nM]
C[C@@H]1CN(c2ccc(C#N)c3nccnc23)C[C@H](CN2CCN(c3cc4c(cn3)[C@@H](C)NCC4)CC2)O1 (single isomer, unassigned) [Example 86]	7.69	117
C[C@@H]1CN(c2ccc(C#N)c3nccnc23)C[C@H](CN2CCN(c3cc4c(cn3)CCN[C@@H]4C)CC2)O1 (single isomer, unassigned) [Example 87]	8.91	97
C[C@@H]1CN(c2ccc(C#N)c3nccnc23)C[C@H](CN2CCN(c3cc4c(cn3)CCN[C@H]4C)CC2)O1 (single isomer, unassigned) [Example 88]		73
[2H]c1nc2c(C#N)ccc(N3C[C@H](CN4CCN(c5cc6c(cn5)[C@H](C)NCC6)CC4)O[C@H](C)C3)c2nc1[2H] (single isomer, unassigned) [Example 94]		71
[2H]c1nc2c(C#N)ccc(N3C[C@H](CN4CCN(c5cc6c(cn5)[C@@H](C)NCC6)CC4)O[C@H](C)C3)c2nc1[2H] (single isomer, unassigned) [Example 95]	7.13	103
[2H]c1nc2c(C#N)ccc(N3C[C@H](CN4CCN(c5ccc6c(n5)CN[C@H]6C)CC4)O[C@H](C)C3)c2nc1[2H] (single isomer, unassigned) [Example 96]	6.23	116
[2H]c1nc2c(C#N)ccc(N3C[C@H](CN4CCN(c5ccc6c(n5)CN[C@@H]6C)CC4)O[C@H](C)C3)c2nc1[2H] (single isomer, unassigned) [Example 97]	6.15	110
[2H]c1ccc2c(N3C[C@H](CN4CCN(c5ccc6c(n5)CN[C@@H]6C)CC4)O[C@H](C)C3)ccc(C#N)c2n1 (single isomer, unassigned) [Example 98]	8.02	91
[2H]c1ccc2c(N3C[C@H](CN4CCN(c5ccc6c(n5)CN[C@H]6C)CC4)O[C@H](C)C3)ccc(C#N)c2n1 (single isomer, unassigned) [Example 99]	6.32	69
C[C@@H]1CN(c2ccc(C#N)c3ncccc23)C[C@H](CN2CCN(c3ccc4c(c3)CNCC4)CC2)O1 [Example 9, 5-[(2R,6S)-2-methyl-6-[[4-(1,2,3,4-tetrahydroisoquinolin-7-yl)piperazin-1-yl]methyl]morpholin-4-yl]quinoline-8-carbonitrile]	6.74	77
C[C@@H]1CN(c2ccc(C#N)c3ncccc23)C[C@H](CN2CCN(c3cnc4c(c3)CNC4)CC2)O1 [Example 10, 5-[(2S,6R)-2-[[4-(6,7-dihydro-5H-pyrrolo[3,4-b]pyridin-3-yl)piperazin-1-yl]methyl]-6-methyl-morpholin-4-yl] quinoline-8-carbonitrile]	8.61	53
